{"source": "ChEMBL document CHEMBL5649169", "about": "(ChemMedChem, 2018); for ED50: assay method not described here", "key": {"[1]": {"biological_target": "Tyrosine-protein kinase ABL1 (Homo sapiens, UniProt P00519)", "settings": "read-out: Kd(app)"}, "[2]": {"biological_target": "Conserved oligomeric Golgi complex subunit 4 (Homo sapiens) (UniProt Q9H9E3)"}, "[3]": {"biological_target": "Cyclin-dependent kinase 13 (Homo sapiens) (UniProt Q14004)"}, "[4]": {"biological_target": "EKC/KEOPS complex subunit TP53RK (Homo sapiens) (UniProt Q96S44)"}, "Ephrin type-B receptor 2": {"biological_target": "Ephrin type-B receptor 2 (Homo sapiens, UniProt P29323)", "experiment": "Inhibition of Nano Luc-fused full length C-terminal EPHB2 (unknown origin) expressed in HEK293T cells using NanoGlo as substrate incubated for 2 hrs in presence of tracer by NanoBRET assay", "type": "cell-based"}, "[5]": {"biological_target": "ADP/ATP translocase 3 (Homo sapiens) (UniProt P12236)"}, "[6]": {"biological_target": "Actin-related protein 2 (Homo sapiens) (UniProt P61160)"}, "[7]": {"biological_target": "Aminopeptidase B (Homo sapiens) (UniProt Q9H4A4)"}, "[8]": {"biological_target": "Ubiquitin-like FUBI-ribosomal protein eS30 fusion protein (Homo sapiens) (UniProt P62861)"}, "[9]": {"biological_target": "NADH dehydrogenase [ubiquinone] iron-sulfur protein 7, mitochondrial (Homo sapiens) (UniProt O75251)", "sequence (O75251 whole entry)": "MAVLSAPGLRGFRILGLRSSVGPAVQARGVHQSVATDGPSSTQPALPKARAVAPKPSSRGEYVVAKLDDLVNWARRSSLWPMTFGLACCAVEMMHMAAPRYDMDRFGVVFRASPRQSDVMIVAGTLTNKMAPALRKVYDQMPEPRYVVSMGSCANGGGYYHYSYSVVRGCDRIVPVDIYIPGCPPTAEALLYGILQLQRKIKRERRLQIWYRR"}, "[10]": {"biological_target": "Dolichyl-diphosphooligosaccharide--protein glycosyltransferase subunit STT3A (Homo sapiens) (UniProt P46977)"}, "[11]": {"biological_target": "14-3-3 protein eta (Homo sapiens) (UniProt Q04917)"}, "[12]": {"biological_target": "Polyadenylate-binding protein-interacting protein 1 (Homo sapiens) (UniProt Q9H074)"}, "[13]": {"biological_target": "Peptidyl-prolyl cis-trans isomerase FKBP1A (Homo sapiens) (UniProt P62942)"}, "[14]": {"biological_target": "TANK-binding kinase 1-binding protein 1 (Homo sapiens) (UniProt A7MCY6)"}, "[15]": {"biological_target": "Rab GDP dissociation inhibitor beta (Homo sapiens) (UniProt P50395)"}, "[16]": {"biological_target": "Large ribosomal subunit protein uL18 (Homo sapiens) (UniProt P46777)"}, "[17]": {"biological_target": "Eukaryotic translation initiation factor 4B (Homo sapiens) (UniProt P23588)", "sequence (P23588 whole entry)": "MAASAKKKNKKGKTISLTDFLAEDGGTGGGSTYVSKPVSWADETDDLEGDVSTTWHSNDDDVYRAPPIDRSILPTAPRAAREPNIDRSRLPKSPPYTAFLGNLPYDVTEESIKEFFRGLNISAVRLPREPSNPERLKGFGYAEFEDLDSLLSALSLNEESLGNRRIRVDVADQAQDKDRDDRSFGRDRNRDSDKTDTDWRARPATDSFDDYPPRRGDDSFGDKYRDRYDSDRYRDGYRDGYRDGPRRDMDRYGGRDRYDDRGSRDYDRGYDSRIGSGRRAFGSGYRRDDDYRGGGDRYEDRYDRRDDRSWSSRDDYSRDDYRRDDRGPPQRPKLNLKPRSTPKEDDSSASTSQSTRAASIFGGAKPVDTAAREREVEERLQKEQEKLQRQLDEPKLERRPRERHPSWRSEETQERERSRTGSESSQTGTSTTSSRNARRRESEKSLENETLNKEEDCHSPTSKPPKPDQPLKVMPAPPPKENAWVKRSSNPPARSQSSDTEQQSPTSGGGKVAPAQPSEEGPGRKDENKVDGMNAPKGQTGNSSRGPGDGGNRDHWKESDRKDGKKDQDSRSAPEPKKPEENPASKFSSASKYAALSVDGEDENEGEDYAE"}, "[18]": {"biological_target": "LIM domain kinase 2 (Homo sapiens) (UniProt P53671)"}, "[19]": {"biological_target": "Deoxycytidine kinase (Homo sapiens) (UniProt P27707)"}, "[20]": {"biological_target": "Actin-related protein 2/3 complex subunit 1B (Homo sapiens) (UniProt O15143)"}, "[21]": {"biological_target": "Non-selective voltage-gated ion channel VDAC1 (Homo sapiens) (UniProt P21796)"}, "[22]": {"biological_target": "Actin-like protein 6A (Homo sapiens) (UniProt O96019)", "sequence (O96019 whole entry)": "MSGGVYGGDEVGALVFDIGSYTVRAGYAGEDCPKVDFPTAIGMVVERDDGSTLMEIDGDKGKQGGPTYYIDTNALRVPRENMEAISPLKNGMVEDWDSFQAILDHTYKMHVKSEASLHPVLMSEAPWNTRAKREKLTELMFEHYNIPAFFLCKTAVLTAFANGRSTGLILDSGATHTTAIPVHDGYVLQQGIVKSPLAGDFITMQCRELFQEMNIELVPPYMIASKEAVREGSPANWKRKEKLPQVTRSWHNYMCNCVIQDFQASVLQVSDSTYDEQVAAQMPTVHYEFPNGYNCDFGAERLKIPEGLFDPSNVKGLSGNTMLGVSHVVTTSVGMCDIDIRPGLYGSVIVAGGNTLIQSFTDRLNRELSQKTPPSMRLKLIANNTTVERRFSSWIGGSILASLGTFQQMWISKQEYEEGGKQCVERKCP"}, "[23]": {"biological_target": "DNA damage-binding protein 1 (Homo sapiens) (UniProt Q16531)"}, "[24]": {"biological_target": "DNA replication licensing factor MCM5 (Homo sapiens) (UniProt P33992)"}, "[25]": {"biological_target": "Calcium/calmodulin-dependent protein kinase type II subunit delta (Homo sapiens) (UniProt Q13557)"}, "[26]": {"biological_target": "Protein LYRIC (Homo sapiens) (UniProt Q86UE4)"}, "[27]": {"biological_target": "Mitogen-activated protein kinase 7 (Homo sapiens) (UniProt Q13164)"}, "[28]": {"biological_target": "Exocyst complex component 4 (Homo sapiens) (UniProt Q96A65)", "sequence (Q96A65 whole entry, one chain of several)": "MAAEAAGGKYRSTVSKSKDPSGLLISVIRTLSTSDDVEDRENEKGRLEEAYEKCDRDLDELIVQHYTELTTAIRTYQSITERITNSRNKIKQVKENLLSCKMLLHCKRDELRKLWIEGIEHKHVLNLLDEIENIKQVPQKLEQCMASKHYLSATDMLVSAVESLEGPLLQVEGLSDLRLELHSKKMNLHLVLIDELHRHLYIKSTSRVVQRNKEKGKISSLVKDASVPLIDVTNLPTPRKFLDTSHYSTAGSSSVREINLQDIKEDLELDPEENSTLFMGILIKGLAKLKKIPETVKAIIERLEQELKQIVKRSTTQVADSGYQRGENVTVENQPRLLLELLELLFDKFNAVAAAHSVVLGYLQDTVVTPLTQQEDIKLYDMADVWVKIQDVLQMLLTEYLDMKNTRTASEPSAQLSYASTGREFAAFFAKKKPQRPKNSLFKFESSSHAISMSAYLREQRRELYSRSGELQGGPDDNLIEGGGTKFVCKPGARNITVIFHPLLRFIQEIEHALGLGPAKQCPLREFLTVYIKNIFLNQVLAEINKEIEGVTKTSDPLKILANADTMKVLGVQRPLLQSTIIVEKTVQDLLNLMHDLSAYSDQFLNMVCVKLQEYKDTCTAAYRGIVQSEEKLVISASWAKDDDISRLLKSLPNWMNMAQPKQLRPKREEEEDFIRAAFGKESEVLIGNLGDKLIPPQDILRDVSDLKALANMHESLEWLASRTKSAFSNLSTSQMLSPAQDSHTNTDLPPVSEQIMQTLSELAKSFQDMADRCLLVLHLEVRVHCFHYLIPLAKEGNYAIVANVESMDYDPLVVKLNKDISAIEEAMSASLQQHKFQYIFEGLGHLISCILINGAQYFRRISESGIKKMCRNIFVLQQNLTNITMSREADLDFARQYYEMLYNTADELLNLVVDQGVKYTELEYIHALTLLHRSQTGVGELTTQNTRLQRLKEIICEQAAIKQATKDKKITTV"}, "[29]": {"biological_target": "Casein kinase II subunit beta (Homo sapiens) (UniProt P67870)"}, "[30]": {"biological_target": "Serine/threonine-protein kinase/endoribonuclease IRE1 (Homo sapiens) (UniProt O75460)", "sequence (O75460 19-977 limits assumed)": "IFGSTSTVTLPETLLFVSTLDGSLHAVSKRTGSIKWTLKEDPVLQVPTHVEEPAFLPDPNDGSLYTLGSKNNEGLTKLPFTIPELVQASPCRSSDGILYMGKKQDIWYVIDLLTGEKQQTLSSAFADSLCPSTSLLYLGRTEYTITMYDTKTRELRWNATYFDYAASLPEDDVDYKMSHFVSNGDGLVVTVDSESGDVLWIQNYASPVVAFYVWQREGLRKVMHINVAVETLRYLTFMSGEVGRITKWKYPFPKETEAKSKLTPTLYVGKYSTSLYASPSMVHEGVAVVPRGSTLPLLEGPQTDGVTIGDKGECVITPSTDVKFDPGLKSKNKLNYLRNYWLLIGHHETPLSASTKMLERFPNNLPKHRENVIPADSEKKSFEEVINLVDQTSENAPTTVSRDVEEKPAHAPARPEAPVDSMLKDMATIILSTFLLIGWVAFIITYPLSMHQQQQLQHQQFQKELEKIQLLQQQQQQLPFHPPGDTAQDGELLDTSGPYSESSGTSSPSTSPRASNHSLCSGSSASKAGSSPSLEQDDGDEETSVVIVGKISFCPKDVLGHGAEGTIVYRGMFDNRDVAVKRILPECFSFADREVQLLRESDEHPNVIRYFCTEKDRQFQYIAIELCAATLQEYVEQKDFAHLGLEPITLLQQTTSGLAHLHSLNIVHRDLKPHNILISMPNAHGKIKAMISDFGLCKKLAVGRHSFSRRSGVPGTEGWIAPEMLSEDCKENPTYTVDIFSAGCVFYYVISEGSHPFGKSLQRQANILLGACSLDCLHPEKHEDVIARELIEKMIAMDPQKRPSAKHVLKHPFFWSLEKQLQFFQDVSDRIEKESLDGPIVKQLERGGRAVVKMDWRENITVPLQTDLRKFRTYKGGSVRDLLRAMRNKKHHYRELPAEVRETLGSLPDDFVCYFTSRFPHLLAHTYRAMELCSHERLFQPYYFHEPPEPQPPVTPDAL"}, "[31]": {"biological_target": "Carboxymethylenebutenolidase homolog (Homo sapiens) (UniProt Q96DG6)"}, "[32]": {"biological_target": "Coatomer subunit beta (Homo sapiens) (UniProt P53618)"}, "[33]": {"biological_target": "Pyruvate dehydrogenase E1 component subunit beta, mitochondrial (Homo sapiens) (UniProt P11177)", "sequence (P11177 whole entry)": "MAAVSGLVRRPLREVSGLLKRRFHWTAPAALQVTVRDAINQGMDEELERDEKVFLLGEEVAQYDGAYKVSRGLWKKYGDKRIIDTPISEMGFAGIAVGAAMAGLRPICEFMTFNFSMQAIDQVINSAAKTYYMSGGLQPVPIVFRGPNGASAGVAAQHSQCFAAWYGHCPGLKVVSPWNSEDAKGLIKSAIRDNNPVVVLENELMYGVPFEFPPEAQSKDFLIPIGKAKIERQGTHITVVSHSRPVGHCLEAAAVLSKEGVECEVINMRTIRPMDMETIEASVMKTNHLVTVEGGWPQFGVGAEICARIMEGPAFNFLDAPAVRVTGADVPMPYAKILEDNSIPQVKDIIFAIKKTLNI"}, "[34]": {"biological_target": "Pre-mRNA-splicing factor SPF27 (Homo sapiens) (UniProt O75934)"}, "[35]": {"biological_target": "AP-2 complex subunit beta (Homo sapiens) (UniProt P63010)"}, "[36]": {"biological_target": "Tubulin-specific chaperone D (Homo sapiens) (UniProt Q9BTW9)", "sequence (Q9BTW9 whole entry)": "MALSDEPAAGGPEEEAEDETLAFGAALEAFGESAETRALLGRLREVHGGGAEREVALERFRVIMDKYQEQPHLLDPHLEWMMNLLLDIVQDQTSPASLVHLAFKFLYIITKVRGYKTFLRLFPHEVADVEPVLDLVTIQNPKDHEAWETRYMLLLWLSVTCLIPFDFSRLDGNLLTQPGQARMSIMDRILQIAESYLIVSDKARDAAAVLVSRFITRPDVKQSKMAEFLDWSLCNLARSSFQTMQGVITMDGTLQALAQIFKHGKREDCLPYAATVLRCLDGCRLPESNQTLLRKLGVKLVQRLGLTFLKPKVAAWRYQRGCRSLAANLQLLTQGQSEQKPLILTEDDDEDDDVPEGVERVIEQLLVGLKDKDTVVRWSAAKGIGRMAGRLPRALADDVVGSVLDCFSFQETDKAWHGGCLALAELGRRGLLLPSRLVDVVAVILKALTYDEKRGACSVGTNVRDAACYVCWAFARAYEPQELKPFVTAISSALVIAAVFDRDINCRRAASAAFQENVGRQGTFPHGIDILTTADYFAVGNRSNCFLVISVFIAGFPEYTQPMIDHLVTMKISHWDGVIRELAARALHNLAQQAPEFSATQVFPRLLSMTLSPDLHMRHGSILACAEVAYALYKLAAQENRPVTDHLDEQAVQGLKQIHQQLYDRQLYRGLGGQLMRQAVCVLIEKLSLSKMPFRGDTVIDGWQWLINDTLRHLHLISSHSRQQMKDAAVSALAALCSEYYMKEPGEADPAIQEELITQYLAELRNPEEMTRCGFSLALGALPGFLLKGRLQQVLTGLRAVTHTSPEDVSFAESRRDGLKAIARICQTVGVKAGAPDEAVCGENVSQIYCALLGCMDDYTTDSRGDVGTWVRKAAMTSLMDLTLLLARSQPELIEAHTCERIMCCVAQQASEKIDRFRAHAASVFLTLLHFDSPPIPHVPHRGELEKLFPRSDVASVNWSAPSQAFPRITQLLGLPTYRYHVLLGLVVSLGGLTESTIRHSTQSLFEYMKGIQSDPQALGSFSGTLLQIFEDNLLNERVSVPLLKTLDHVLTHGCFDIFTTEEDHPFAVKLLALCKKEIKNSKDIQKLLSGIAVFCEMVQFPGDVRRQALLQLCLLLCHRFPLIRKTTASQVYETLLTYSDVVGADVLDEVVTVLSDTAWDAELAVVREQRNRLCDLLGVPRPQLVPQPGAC"}, "[37]": {"biological_target": "Peroxiredoxin-6 (Homo sapiens) (UniProt P30041)", "sequence (P30041 whole entry)": "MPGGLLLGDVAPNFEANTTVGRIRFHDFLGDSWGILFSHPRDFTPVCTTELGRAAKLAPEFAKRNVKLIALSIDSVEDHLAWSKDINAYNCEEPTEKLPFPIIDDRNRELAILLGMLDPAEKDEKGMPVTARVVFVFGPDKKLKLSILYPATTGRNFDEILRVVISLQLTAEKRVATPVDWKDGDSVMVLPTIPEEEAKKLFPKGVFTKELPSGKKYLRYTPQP"}, "[38]": {"biological_target": "Proteasomal ubiquitin receptor ADRM1 (Homo sapiens) (UniProt Q16186)"}, "[39]": {"biological_target": "Very-long-chain 3-oxoacyl-CoA reductase (Homo sapiens) (UniProt Q53GQ0)"}, "[40]": {"biological_target": "tRNA (guanosine(18)-2'-O)-methyltransferase TARBP1 (Homo sapiens) (UniProt Q13395)"}, "[41]": {"biological_target": "SUMO-conjugating enzyme UBC9 (Homo sapiens) (UniProt P63279)"}, "[42]": {"biological_target": "Poly(rC)-binding protein 1 (Homo sapiens) (UniProt Q15365)"}, "[43]": {"biological_target": "Serine/threonine-protein kinase D2 (Homo sapiens) (UniProt Q9BZL6)"}}}
{"molecule": "Cc1ccc(C(=O)Nc2cccc(C(F)(F)F)c2)cc1Nc1nc(-c2cccnc2)nc2c1cnn2C", "values": [{"measurement": "Kd", "setting": "[1]", "result": 0.91, "unit": "µM"}, {"measurement": "ED50", "setting": "[2]", "result": 4.61, "unit": "µM"}, {"measurement": "ED50", "setting": "[3]", "result": 17.8, "unit": "µM"}, {"measurement": "ED50", "setting": "[4]", "result": 3.47, "unit": "µM"}, {"measurement": "IC50", "setting": "Ephrin type-B receptor 2", "result": 0.0025, "unit": "µM"}, {"measurement": "ED50", "setting": "[5]", "result": 2.19, "unit": "µM"}, {"measurement": "ED50", "setting": "[6]", "result": 0.174, "unit": "µM"}, {"measurement": "ED50", "setting": "[7]", "result": 0.664, "unit": "µM"}, {"measurement": "ED50", "setting": "[8]", "result": 0.562, "unit": "µM"}, {"measurement": "ED50", "setting": "[9]", "result": 0.00309, "unit": "µM"}, {"measurement": "ED50", "setting": "[10]", "result": 1.12, "unit": "µM"}, {"measurement": "ED50", "setting": "[11]", "result": 0.0217, "unit": "µM"}, {"measurement": "ED50", "setting": "[12]", "result": 13.9, "unit": "µM"}, {"measurement": "ED50", "setting": "[13]", "result": 94, "unit": "µM"}, {"measurement": "ED50", "setting": "[14]", "result": 11.4, "unit": "µM"}, {"measurement": "ED50", "setting": "[15]", "result": 74.6, "unit": "µM"}, {"measurement": "ED50", "setting": "[16]", "result": 0.862, "unit": "µM"}, {"measurement": "ED50", "setting": "[17]", "result": 0.449, "unit": "µM"}, {"measurement": "ED50", "setting": "[18]", "result": 2.57, "unit": "µM"}, {"measurement": "ED50", "setting": "[19]", "result": 5, "unit": "µM"}, {"measurement": "ED50", "setting": "[20]", "result": 115, "unit": "µM"}, {"measurement": "ED50", "setting": "[21]", "result": 0.00899, "unit": "µM"}, {"measurement": "ED50", "setting": "[22]", "result": 3.26, "unit": "µM"}, {"measurement": "ED50", "setting": "[23]", "result": 0.122, "unit": "µM"}, {"measurement": "ED50", "setting": "[24]", "result": 6.51, "unit": "µM"}, {"measurement": "ED50", "setting": "[25]", "result": 0.11, "unit": "µM"}, {"measurement": "ED50", "setting": "[26]", "result": 4.51, "unit": "µM"}, {"measurement": "ED50", "setting": "[27]", "result": 4.09, "unit": "µM"}, {"measurement": "ED50", "setting": "[28]", "result": 11.4, "unit": "µM"}, {"measurement": "ED50", "setting": "[29]", "result": 0.109, "unit": "µM"}, {"measurement": "ED50", "setting": "[30]", "result": 0.00529, "unit": "µM"}, {"measurement": "ED50", "setting": "[31]", "result": 0.671, "unit": "µM"}, {"measurement": "ED50", "setting": "[32]", "result": 0.813, "unit": "µM"}, {"measurement": "ED50", "setting": "[33]", "result": 3.33, "unit": "µM"}, {"measurement": "ED50", "setting": "[34]", "result": 0.00189, "unit": "µM"}, {"measurement": "ED50", "setting": "[35]", "result": 11.9, "unit": "µM"}, {"measurement": "ED50", "setting": "[36]", "result": 0.00459, "unit": "µM"}, {"measurement": "ED50", "setting": "[37]", "result": 66.2, "unit": "µM"}, {"measurement": "ED50", "setting": "[38]", "result": 7.09, "unit": "µM"}, {"measurement": "ED50", "setting": "[39]", "result": 0.0533, "unit": "µM"}, {"measurement": "ED50", "setting": "[40]", "result": 18.4, "unit": "µM"}, {"measurement": "ED50", "setting": "[41]", "result": 47.7, "unit": "µM"}, {"measurement": "ED50", "setting": "[42]", "result": 13, "unit": "µM"}, {"measurement": "ED50", "setting": "[43]", "result": 0.49, "unit": "µM"}]}
{"molecule": "Cc1ccc(C(=O)Nc2cccc(C(F)(F)F)c2)cc1Nc1nc(-c2cccnc2)nc2nn(C)cc12", "values": [{"measurement": "Kd", "setting": "[1]", "result": 0.732, "unit": "µM"}, {"measurement": "ED50", "setting": "[2]", "result": 0.0222, "unit": "µM"}, {"measurement": "ED50", "setting": "[3]", "result": 8.22, "unit": "µM"}, {"measurement": "ED50", "setting": "[4]", "result": 0.485, "unit": "µM"}, {"measurement": "IC50", "setting": "Ephrin type-B receptor 2", "result": 0.63, "unit": "µM"}, {"measurement": "ED50", "setting": "[5]", "result": 0.122, "unit": "µM"}, {"measurement": "ED50", "setting": "[6]", "result": 17, "unit": "µM"}, {"measurement": "ED50", "setting": "[7]", "result": 0.0418, "unit": "µM"}, {"measurement": "ED50", "setting": "[8]", "result": 12.4, "unit": "µM"}, {"measurement": "ED50", "setting": "[9]", "result": 1.81, "unit": "µM"}, {"measurement": "ED50", "setting": "[10]", "result": 0.00986, "unit": "µM"}, {"measurement": "ED50", "setting": "[11]", "result": 0.103, "unit": "µM"}, {"measurement": "ED50", "setting": "[12]", "result": 0.00552, "unit": "µM"}, {"measurement": "ED50", "setting": "[13]", "result": 0.00568, "unit": "µM"}, {"measurement": "ED50", "setting": "[14]", "result": 0.06, "unit": "µM"}, {"measurement": "ED50", "setting": "[15]", "result": 0.514, "unit": "µM"}, {"measurement": "ED50", "setting": "[16]", "result": 11.5, "unit": "µM"}, {"measurement": "ED50", "setting": "[17]", "result": 0.0001, "unit": "µM"}, {"measurement": "ED50", "setting": "[18]", "result": 1.38, "unit": "µM"}, {"measurement": "ED50", "setting": "[19]", "result": 0.00309, "unit": "µM"}, {"measurement": "ED50", "setting": "[20]", "result": 0.0545, "unit": "µM"}, {"measurement": "ED50", "setting": "[21]", "result": 0.0559, "unit": "µM"}, {"measurement": "ED50", "setting": "[22]", "result": 12.6, "unit": "µM"}, {"measurement": "ED50", "setting": "[23]", "result": 0.139, "unit": "µM"}, {"measurement": "ED50", "setting": "[24]", "result": 1560, "unit": "µM"}, {"measurement": "ED50", "setting": "[25]", "result": 0.0386, "unit": "µM"}, {"measurement": "ED50", "setting": "[26]", "result": 6.82, "unit": "µM"}, {"measurement": "ED50", "setting": "[27]", "result": 5.74, "unit": "µM"}, {"measurement": "ED50", "setting": "[28]", "result": 0.0488, "unit": "µM"}, {"measurement": "ED50", "setting": "[29]", "result": 0.0889, "unit": "µM"}, {"measurement": "ED50", "setting": "[30]", "result": 1.92, "unit": "µM"}, {"measurement": "ED50", "setting": "[31]", "result": 0.0561, "unit": "µM"}, {"measurement": "ED50", "setting": "[32]", "result": 0.928, "unit": "µM"}, {"measurement": "ED50", "setting": "[33]", "result": 7.18, "unit": "µM"}, {"measurement": "ED50", "setting": "[34]", "result": 0.954, "unit": "µM"}, {"measurement": "ED50", "setting": "[35]", "result": 0.331, "unit": "µM"}, {"measurement": "ED50", "setting": "[36]", "result": 0.00542, "unit": "µM"}, {"measurement": "ED50", "setting": "[37]", "result": 0.0611, "unit": "µM"}, {"measurement": "ED50", "setting": "[38]", "result": 0.0135, "unit": "µM"}, {"measurement": "ED50", "setting": "[39]", "result": 0.00539, "unit": "µM"}, {"measurement": "ED50", "setting": "[40]", "result": 63.1, "unit": "µM"}, {"measurement": "ED50", "setting": "[41]", "result": 0.291, "unit": "µM"}, {"measurement": "ED50", "setting": "[42]", "result": 0.053, "unit": "µM"}, {"measurement": "ED50", "setting": "[43]", "result": 0.0468, "unit": "µM"}]}
